The data set concerns rodent carcinogenicity bioassays, tumor incidence. In words: CCRIS carcinogenicity studies. In a few lines: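 Archive of carcinogenicity, mutagenicity, tumor promotion and tumor inhibition results drawn from journals, NCI reports and other sources, expert-reviewed; covers 1985-2011 and is no longer updated.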

Here are results for 8 molecules from PubChem BioAssay AID1259411 (Chemical Carcinogenesis Research Information System (CCRIS), 2018).

Molecules are shown by their SMILES. Activity calls are given as the source filed them. The rule behind the calls is not given here.

With `Cc1cc2c(nc1N)[nH]c1ccccc12`, the carcinogen call (Species: MOUSE, Strain/Sex: CDF1/FEMALE, Route: ORAL, Dose: 0, 0.08% IN DIET FOR UP TO 685 D (STUDY DURATION: 685 D), Tumor Site: Type of Lesion: LIVER: HEPATOCELLULAR ADENOMA OR CARCINOMA, BLOOD VESSELS: HEMANGIOENDOTHELIOMA OR HEMANGIOENDOTHELIAL SARCOMA) was “active; positive”; the carcinogen call (Species: MOUSE, Strain/Sex: CDF1/MALE, Route: ORAL, Dose: 0, 0.05% IN DIET FOR UP TO 685 D (STUDY DURATION: 685 D), Tumor Site: Type of Lesion: LIVER: HEPATOCELLULAR ADENOMA OR CARCINOMA, BLOOD VESSELS: HEMANGIOENDOTHELIOMA OR HEMANGIOENDOTHELIAL SARCOMA) was “active; positive”; the carcinogen call (Species: RAT, Strain/Sex: F344/MALE, Route: ORAL, Dose: 0, 0.01, 0.02% IN DIET FOR 100 WK (STUDY DURATION: 100 WK), Dose: 0, 0.01, 0.02% IN DIET FOR 100 WK (STUDY DURATION: 100 WK), Tumor Site: Type of Lesion: LIVER: HEPATOCELLULAR CARCINOMA, PANCREAS: ACINAR CELL ADENOMA, SKIN (SUBCUTIS): FIBROMA, Tumor Site: Type of Lesion: LIVER: HEPATOCELLULAR CARCINOMA, PANCREAS: ACINAR CELL ADENOMA, SKIN (SUBCUTIS): FIBROMA) is “active; positive”.

For the molecule `C=CC(=O)OCCCCCC(C)C`, under “Species: MOUSE, Strain/Sex: C3H/MALE, Route: DERMAL, Dose: 25 µL (5% V/V) IN ACETONE APPLIED TO BACK 3 D/WK FOR LIFE (STUDY DURATION: LIFE)”, the carcinogen call was “inactive; negative”.

For the molecule `Cc1ccc(S(=O)(=O)O)cc1C`, the carcinogen call is “inactive; negative” (Species: MOUSE, Strain/Sex: B6C3F1/FEMALE, Route: DERMAL, Dose: 0, 182, 364, 727 MG/KG IN 50% ETHANOL 5D/WK FOR 105 WK (STUDY DURATION: 105 WK), Dose: 0, 182, 364, 727 MG/KG IN 50% ETHANOL 5D/WK FOR 105 WK (STUDY DURATION: 105 WK)); “inactive; negative” (Species: MOUSE, Strain/Sex: B6C3F1/MALE, Route: DERMAL, Dose: 0, 182, 364, 727 MG/KG IN 50% ETHANOL 5D/WK FOR 104 WK (STUDY DURATION: 104 WK), Dose: 0, 182, 364, 727 MG/KG IN 50% ETHANOL 5D/WK FOR 104 WK (STUDY DURATION: 104 WK)); “inactive; negative” (Species: RAT, Strain/Sex: F344/FEMALE, Route: DERMAL, Dose: 0, 60, 120, 240 MG/KG IN 50% ETHANOL 5 D/WK FOR 104 WK (STUDY DURATION: 104 WK), Dose: 0, 60, 120, 240 MG/KG IN 50% ETHANOL 5 D/WK FOR 104 WK (STUDY DURATION: 104 WK)); “inactive; negative” (Species: RAT, Strain/Sex: F344/MALE, Route: DERMAL, Dose: 0, 60, 120, 240 MG/KG IN 50% ETHANOL 5D/WK FOR 104 WK (STUDY DURATION: 104 WK), Dose: 0, 60, 120, 240 MG/KG IN 50% ETHANOL 5D/WK FOR 104 WK (STUDY DURATION: 104 WK)).

Consider `CN(C)C(=O)Nc1ccc(Cl)c(Cl)c1`, for which the carcinogen call is “inactive; negative” (Species: MOUSE, Strain/Sex: SWISS/FEMALE, Route: DERMAL, Dose: 0, 250 MG/KG IN 100 µL DMSO TO INTERSCAPULAR REGION 3/WK FOR 3 WK FOLLOWED 1 WK LATER BY 100 µL ACETONE 3/WK FOR DURATIO); “active; positive. (ca department of pesticide regulation reviewer evaluates as a possibl” (Species: Mouse, Strain/Sex: Bor strain NMRI SPF HAN/Female (60/Group), Route: Oral, Dose: 0, 25, 250, 2500 ppm 98.7% diuron in diet for 24 mo, study duration 24 mo, Dose: 0, 25, 250, 2500 ppm 98.7% diuron in diet for 24 mo, study duration 24 mo, Tumor Site: Type of Lesion: Mammary gland: Adenocarcinoma (highest dose only)); “inactive; negative” (Species: Mouse, Strain/Sex: Bor strain NMRI SPF HAN/Male (60/Group), Route: Oral, Dose: 0, 25, 250, 2500 ppm 98.7% diuron in diet for 24 mo, study duration 24 mo, Dose: 0, 25, 250, 2500 ppm 98.7% diuron in diet for 24 mo, study duration 24 mo); “active; positive. (ca department of pesticide regulation reviewer evaluates as a possibl” (Species: Rat, Strain/Sex: Wistar/Female (50/Group), Route: Oral, Dose: 0, 25, 250, 2500 ppm 98.7% diuron in diet for 2 yr, study duration 2 yr, Dose: 0, 25, 250, 2500 ppm 98.7% diuron in diet for 2 yr, study duration 2 yr, Tumor Site: Type of Lesion: Urinary bladder: Transitional epithelial cell carcinoma (highest dose only)); “active; positive. (ca department of pesticide regulation reviewer evaluates as a possibl” (Species: Rat, Strain/Sex: Wistar/Male (50/Group), Route: Oral, Dose: 0, 25, 250, 2500 ppm 98.7% diuron in diet for 2 yr, study duration 2 yr, Dose: 0, 25, 250, 2500 ppm 98.7% diuron in diet for 2 yr, study duration 2 yr, Tumor Site: Type of Lesion: Urinary bladder: Transitional epithelial cell carcinoma (highest dose only). Kidney: Epithelial cell tumors in renal pel).

Consider `Cc1ccc(N=Nc2c(O)ccc3ccccc23)c([N+](=O)[O-])c1`, for which the carcinogen call by setting is: (Species: MOUSE, Strain/Sex: B6C3F1/FEMALE, Route: ORAL, Dose: 0, 12500, 25000, 50000 PPM IN FEED FOR 2 YR (STUDY DURATION: 2 YR), Dose: 0, 12500, 25000, 50000 PPM IN FEED FOR 2 YR (STUDY DURATION: 2 YR)) “inactive; negative”; (Species: MOUSE, Strain/Sex: B6C3F1/MALE, Route: ORAL, Dose: 0, 12500, 25000, 50000 PPM IN FEED FOR 2 YR (STUDY DURATION: 2 YR), Dose: 0, 12500, 25000, 50000 PPM IN FEED FOR 2 YR (STUDY DURATION: 2 YR), Tumor Site: Type of Lesion: KIDNEY (CORTEX): ADENOMA, THYROID GLAND (FOLLICULAR CELL): ADENOMA) “active; positive”; (Species: RAT, Strain/Sex: F344/FEMALE, Route: ORAL, Dose: 0, 6000, 12500, 25000 PPM IN FEED FOR 2 YR (STUDY DURATION: 2 YR), Dose: 0, 6000, 12500, 25000 PPM IN FEED FOR 2 YR (STUDY DURATION: 2 YR), Tumor Site: Type of Lesion: LIVER: HEPATOCELLULAR ADENOMA) “active; positive”; (Species: RAT, Strain/Sex: F344/MALE, Route: ORAL, Dose: 0, 6000, 12500, 25000 PPM IN FEED FOR 2 YR (STUDY DURATION: 2 YR), Dose: 0, 6000, 12500, 25000 PPM IN FEED FOR 2 YR (STUDY DURATION: 2 YR), Tumor Site: Type of Lesion: ADRENAL MEDULLA: PHEOCHROMOCYTOMA (BENIGN OR MALIGNANT)) “active; positive”.

For `FC(F)(F)C(Cl)Cl`, the carcinogen call was “active; positive” (Species: RAT, Strain/Sex: CRL:CDBR/FEMALE, Route: INHALATION, Dose: 0, 300, 1000, 5000 PPM 6 HR/D 5 D/WK FOR 2 YR (STUDY DURATION: 2 YR), Dose: 0, 300, 1000, 5000 PPM 6 HR/D 5 D/WK FOR 2 YR (STUDY DURATION: 2 YR), Tumor Site: Type of Lesion: LIVER: ADENOMA, CHOLANGIOFIBROMA) and “active; positive” (Species: RAT, Strain/Sex: CRL:CDBR/MALE, Route: INHALATION, Dose: 0, 300, 1000, 5000 PPM 6 HR/D 5 D/WK FOR 2 YR (STUDY DURATION: 2 YR), Dose: 0, 300, 1000, 5000 PPM 6 HR/D 5 D/WK FOR 2 YR (STUDY DURATION: 2 YR), Tumor Site: Type of Lesion: LIVER: ADENOMA, PANCREAS: ADENOMA, TESTES: ADENOMA, Tumor Site: Type of Lesion: LIVER: ADENOMA, PANCREAS: ADENOMA, TESTES: ADENOMA).

For `ClC1=C(Cl)[C@]2(Cl)[C@@H]3[C@H]4C[C@H]([C@@H]5O[C@H]45)[C@@H]3[C@@]1(Cl)C2(Cl)Cl`, the carcinogen call was “inactive; negative” (Species: MOUSE, Strain/Sex: B6C3F1/FEMALE, Route: ORAL, Dose: 0, 2.5, 5 PPM IN DIET, TWA, Dose: 0, 2.5, 5 PPM IN DIET, TWA); “inactive; negative” (Species: MOUSE, Strain/Sex: B6C3F1/MALE, Route: ORAL, Dose: 0, 1.6, 3.2 PPM IN DIET, TWA, Dose: 0, 1.6, 3.2 PPM IN DIET, TWA); “inactive; negative” (Species: RAT, Strain/Sex: OSBORNE-MENDEL/FEMALE, Route: ORAL, Dose: 0, 3, 6 PPM IN DIET, TWA, Dose: 0, 3, 6 PPM IN DIET, TWA); “inactive; negative” (Species: RAT, Strain/Sex: OSBORNE-MENDEL/MALE, Route: ORAL, Dose: 0, 2.5, 5 PPM IN DIET, TWA, Dose: 0, 2.5, 5 PPM IN DIET, TWA).

For the molecule `OC1c2cccc3c2[C@]2(O[C@H]2C1O)c1ccccc1-3` (stereo partly specified), the carcinogen call is, setting by setting: (Species: MOUSE, Strain/Sex: ICR/FEMALE, Route: INTRAPERITONEAL, Dose: 0, 500 NMOL (TOTAL DOSE) ADMINISTERED IN DOSES OF 1/7, 2/7, AND 4/7 ON DAYS 1, 7, AND 15 OF LIFE, RESPECTIVELY (STUDY DU, Tumor Site: Type of Lesion: LUNG: TUMOR) “active; positive”; (Species: MOUSE, Strain/Sex: ICR/MALE, Route: INTRAPERITONEAL, Dose: 0, 500 NMOL (TOTAL DOSE) ADMINISTERED IN DOSES OF 1/7, 2/7, AND 4/7 ON DAYS 1, 7 AND 15 OF LIFE , RESPECTIVELY (STUDY DU, Tumor Site: Type of Lesion: LUNG: TUMOR, LIVER: TUMOR) “active; positive”; (Species: RAT, Strain/Sex: STRAIN-CD/FEMALE, Route: INJECTION, Dose: 0, 2, 10 UMOL IN 0.1 ML DMSO INJECTED INTO MAMMARY TISSUE UNDER EACH OF THE 3 LEFT THORACIC NIPPLES FOLLOWED BY SIMILAR, Dose: 0, 2, 10 UMOL IN 0.1 ML DMSO INJECTED INTO MAMMARY TISSUE UNDER EACH OF THE 3 LEFT THORACIC NIPPLES FOLLOWED BY SIMILAR, Tumor Site: Type of Lesion: MAMMARY GLAND: TUMOR) “active; positive”.
